Results: ChEMBL document CHEMBL4385643, “Design of a brain-penetrant CDK4/6 inhibitor for glioblastoma” (Bioorg Med Chem Lett, 2019)

Experiments:
[1] = molecular target: Tyrosine-protein kinase ABL1 (Homo sapiens) (UniProt P00519); experiment: Inhibition of recombinant full length human His-tagged ABL1 expressed in baculovirus expression system at 0.1 uM using tyrosine-2 peptide as substrate incubated for 60 mins by Z'-LYTE assay relative to control
[2] = molecular target: CDK18/Cyclin Y (Homo sapiens) (UniProt Q07002+Q8ND76); experiment: Inhibition of recombinant full length human GST-tagged CDK18/Cyclin Y (2 to end amino acids) expressed in insect expression system at 0.1 uM using serine/threonine-12 peptide as substrate incubated for 60 mins by Z'-LYTE assay relative to control
[3] = molecular target: CDK9/cyclin T1 (Homo sapiens) (UniProt O60563+P50750); experiment: Inhibition of recombinant full length human His-tagged CDK9/CyclinT1 expressed in baculovirus expression system at 0.1 uM using CDK7/9tide peptide as substrate incubated for 60 mins by Adapta assay relative to control
[4] = molecular target: Casein kinase I isoform epsilon (Homo sapiens) (UniProt P49674); experiment: Inhibition of recombinant full length human His-tagged CK1 epsilon1 expressed in baculovirus expression system at 0.1 uM using serine/threonine-11 peptide as substrate incubated for 60 mins by Z'-LYTE assay relative to control
Sequence of Casein kinase I isoform epsilon (Homo sapiens) (P49674 whole entry, looked up, canonical isoform): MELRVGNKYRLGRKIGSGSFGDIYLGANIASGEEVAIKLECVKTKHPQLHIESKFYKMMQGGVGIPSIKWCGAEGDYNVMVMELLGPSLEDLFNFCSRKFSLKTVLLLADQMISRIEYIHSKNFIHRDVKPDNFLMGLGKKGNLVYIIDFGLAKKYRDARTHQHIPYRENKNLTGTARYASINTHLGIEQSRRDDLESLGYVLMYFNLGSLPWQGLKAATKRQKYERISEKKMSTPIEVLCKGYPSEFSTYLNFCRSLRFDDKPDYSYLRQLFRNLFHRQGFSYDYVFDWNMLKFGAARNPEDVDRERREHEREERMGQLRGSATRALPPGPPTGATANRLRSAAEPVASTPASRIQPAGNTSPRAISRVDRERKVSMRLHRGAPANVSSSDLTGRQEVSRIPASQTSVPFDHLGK

[5] = molecular target: Casein kinase II subunit alpha (Homo sapiens) (UniProt P68400); experiment: Inhibition of recombinant full length human His-tagged CK2 alpha 1 expressed in baculovirus expression system at 0.1 uM using serine/threonine-11 peptide as substrate incubated for 60 mins by Z'-LYTE assay relative to control
[6] = molecular target: Dual specificity protein kinase CLK3 (Homo sapiens) (UniProt P49761); experiment: Inhibition of recombinant full length human GST-tagged CLK3 expressed in Baculovirus expression system at 0.1 uM using serine/threonine-18 peptide as substrate incubated for 60 mins by Z'-LYTE assay relative to control
[7] = molecular target: Death-associated protein kinase 1 (Homo sapiens) (UniProt P53355); experiment: Inhibition of recombinant human GST-tagged DAPK1 catalytic domain (1 to 363 residues) expressed in baculovirus expression system at 0.1 uM using ZIPtide peptide as substrate incubated for 60 mins by Adapta assay relative to control
Sequence of Death-associated protein kinase 1 (Homo sapiens) (P53355 whole entry, looked up, the tested form may be a part): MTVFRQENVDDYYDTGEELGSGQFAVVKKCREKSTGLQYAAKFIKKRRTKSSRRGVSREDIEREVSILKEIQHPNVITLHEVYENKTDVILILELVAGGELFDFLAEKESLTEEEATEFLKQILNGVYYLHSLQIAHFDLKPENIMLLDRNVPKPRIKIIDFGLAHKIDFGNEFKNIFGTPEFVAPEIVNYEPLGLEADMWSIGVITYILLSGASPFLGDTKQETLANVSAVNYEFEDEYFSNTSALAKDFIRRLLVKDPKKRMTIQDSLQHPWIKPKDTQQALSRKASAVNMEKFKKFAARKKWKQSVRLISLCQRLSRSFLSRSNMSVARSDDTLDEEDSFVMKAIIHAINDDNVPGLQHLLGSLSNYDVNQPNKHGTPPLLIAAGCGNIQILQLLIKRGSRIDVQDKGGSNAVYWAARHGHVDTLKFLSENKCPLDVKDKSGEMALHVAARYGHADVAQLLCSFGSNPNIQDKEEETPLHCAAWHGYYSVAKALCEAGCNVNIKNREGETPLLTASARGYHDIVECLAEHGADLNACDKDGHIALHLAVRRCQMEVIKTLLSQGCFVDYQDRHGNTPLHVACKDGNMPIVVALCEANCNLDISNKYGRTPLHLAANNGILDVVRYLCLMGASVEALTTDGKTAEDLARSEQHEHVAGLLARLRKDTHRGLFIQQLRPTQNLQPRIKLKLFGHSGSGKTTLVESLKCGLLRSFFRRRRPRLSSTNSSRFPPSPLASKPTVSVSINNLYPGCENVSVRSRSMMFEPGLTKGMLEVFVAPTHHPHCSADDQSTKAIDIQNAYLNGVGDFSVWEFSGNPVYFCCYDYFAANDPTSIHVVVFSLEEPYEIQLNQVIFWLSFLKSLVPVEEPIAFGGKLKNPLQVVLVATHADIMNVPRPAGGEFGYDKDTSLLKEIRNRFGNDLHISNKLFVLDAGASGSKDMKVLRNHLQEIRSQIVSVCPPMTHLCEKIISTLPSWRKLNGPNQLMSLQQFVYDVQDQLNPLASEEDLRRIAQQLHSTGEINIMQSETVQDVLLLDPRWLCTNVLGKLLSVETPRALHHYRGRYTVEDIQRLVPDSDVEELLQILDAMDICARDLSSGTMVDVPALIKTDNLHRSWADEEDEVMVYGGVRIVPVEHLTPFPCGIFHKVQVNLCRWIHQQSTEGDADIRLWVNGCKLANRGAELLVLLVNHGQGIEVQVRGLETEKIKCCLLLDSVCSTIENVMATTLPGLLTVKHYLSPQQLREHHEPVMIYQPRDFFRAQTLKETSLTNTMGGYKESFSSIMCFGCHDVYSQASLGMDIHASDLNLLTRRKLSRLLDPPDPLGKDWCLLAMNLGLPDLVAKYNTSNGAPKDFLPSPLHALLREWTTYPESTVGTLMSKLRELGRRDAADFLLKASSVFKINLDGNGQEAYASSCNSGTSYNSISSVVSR

[8] = tested on: Epidermal growth factor receptor (Homo sapiens), P00533 [L858R,T790M]; experiment: Inhibition of recombinant human GST-tagged EGFR T790M/L858R mutant (668 to 1210: T790M/L858R residues)expressed in baculovirus expression system at 0.1 uM using tyrosine-4 peptide as substrate incubated for 60 mins by Z'-LYTE assay relative to control
[9] = molecular target: Fibroblast growth factor receptor 1 (Homo sapiens) (UniProt P11362); experiment: Inhibition of recombinant human His-tagged FGFR1 catalytic domain (308 to 731 residues) expressed in baculovirus expression system at 0.1 uM using tyrosine-4 peptide as substrate incubated for 60 mins by Z'-LYTE assay relative to control
[10] = molecular target: Inhibitor of nuclear factor kappa-B kinase subunit alpha (Homo sapiens) (UniProt O15111); experiment: Inhibition of recombinant full length human His-tagged IKKalpha expressed in baculovirus expression system at 0.1 uM incubated for 60 mins by Adapta assay relative to control
[11] = molecular target: Serine/threonine-protein kinase MARK1 (Homo sapiens) (UniProt Q9P0L2); experiment: Inhibition of recombinant full length human GST-tagged MARK1 expressed in baculovirus expression system at 0.1 uM using serine/threonine-21 peptide as substrate incubated for 60 mins by Z'-LYTE assay relative to control
[12] = molecular target: Maternal embryonic leucine zipper kinase (Homo sapiens) (UniProt Q14680); experiment: Inhibition of recombinant human GST-tagged MELK catalytic domain (1 to 340 residues) expressed in baculovirus expression system at 0.1 uM using serine/threonine-17 peptide as substrate incubated for 60 mins by Z'-LYTE assay relative to control
[13] = molecular target: MAP kinase-interacting serine/threonine-protein kinase 2 (Homo sapiens) (UniProt Q9HBH9); experiment: Inhibition of tracer 236 binding to full length human GST-tagged MKNK2 expressed in baculovirus expression system at 0.1 uM measured after 60 mins by Lanthascreen assay relative to control
Sequence of MAP kinase-interacting serine/threonine-protein kinase 2 (Homo sapiens) (Q9HBH9 whole entry, looked up, the tested form may be a part): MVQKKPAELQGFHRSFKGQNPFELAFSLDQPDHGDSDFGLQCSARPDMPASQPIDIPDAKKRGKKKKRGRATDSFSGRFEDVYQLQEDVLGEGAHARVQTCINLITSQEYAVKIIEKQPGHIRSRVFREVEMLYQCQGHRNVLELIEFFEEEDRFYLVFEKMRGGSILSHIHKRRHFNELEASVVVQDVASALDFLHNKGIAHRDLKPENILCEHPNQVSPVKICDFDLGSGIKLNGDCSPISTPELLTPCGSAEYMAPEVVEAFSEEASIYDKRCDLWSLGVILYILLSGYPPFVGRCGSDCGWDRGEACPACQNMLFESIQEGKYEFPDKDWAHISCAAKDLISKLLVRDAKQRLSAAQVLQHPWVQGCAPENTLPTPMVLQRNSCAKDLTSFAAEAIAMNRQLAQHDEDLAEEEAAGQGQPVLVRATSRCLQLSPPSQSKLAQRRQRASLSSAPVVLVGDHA

[14] = molecular target: Mitogen-activated protein kinase kinase kinase 9 (Homo sapiens) (UniProt P80192); experiment: Inhibition of recombinant human GST-tagged MLK1 catalytic domain (1 to 500 residues) expressed in baculovirus expression system at 0.1 uM using serine/threonine-7 peptide as substrate incubated for 60 mins by Z'-LYTE assay relative to control
Sequence of Mitogen-activated protein kinase kinase kinase 9 (Homo sapiens) (P80192 whole entry, looked up, the tested form may be a part): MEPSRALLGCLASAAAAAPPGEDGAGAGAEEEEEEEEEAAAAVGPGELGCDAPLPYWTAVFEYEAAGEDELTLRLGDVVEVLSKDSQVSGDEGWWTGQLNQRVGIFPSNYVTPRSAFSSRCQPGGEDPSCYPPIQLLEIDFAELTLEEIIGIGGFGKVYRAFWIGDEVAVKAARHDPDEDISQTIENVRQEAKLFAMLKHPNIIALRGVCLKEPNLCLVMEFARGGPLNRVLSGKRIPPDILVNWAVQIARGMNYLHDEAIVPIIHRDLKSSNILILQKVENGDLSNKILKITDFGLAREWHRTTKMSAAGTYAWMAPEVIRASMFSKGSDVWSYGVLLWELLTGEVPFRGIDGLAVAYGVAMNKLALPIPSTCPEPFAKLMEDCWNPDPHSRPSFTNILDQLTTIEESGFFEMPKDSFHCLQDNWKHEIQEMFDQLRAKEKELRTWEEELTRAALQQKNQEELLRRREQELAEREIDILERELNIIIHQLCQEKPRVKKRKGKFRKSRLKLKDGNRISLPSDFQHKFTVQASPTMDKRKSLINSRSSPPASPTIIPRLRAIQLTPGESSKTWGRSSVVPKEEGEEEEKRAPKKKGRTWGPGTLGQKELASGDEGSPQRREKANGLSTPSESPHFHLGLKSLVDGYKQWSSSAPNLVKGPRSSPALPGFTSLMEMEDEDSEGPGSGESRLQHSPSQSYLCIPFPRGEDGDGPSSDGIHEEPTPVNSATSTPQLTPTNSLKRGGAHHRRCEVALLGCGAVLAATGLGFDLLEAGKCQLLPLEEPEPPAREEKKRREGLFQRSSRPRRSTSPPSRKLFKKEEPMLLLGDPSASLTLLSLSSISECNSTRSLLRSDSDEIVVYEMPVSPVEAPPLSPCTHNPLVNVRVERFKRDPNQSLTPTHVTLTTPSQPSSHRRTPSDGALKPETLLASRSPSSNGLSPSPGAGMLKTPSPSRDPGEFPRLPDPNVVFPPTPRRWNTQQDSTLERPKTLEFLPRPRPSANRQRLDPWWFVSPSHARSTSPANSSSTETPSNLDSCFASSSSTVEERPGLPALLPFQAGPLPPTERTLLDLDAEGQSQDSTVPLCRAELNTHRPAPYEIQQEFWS

[15] = molecular target: Serine/threonine-protein kinase 24 (Homo sapiens) (UniProt Q9Y6E0); experiment: Inhibition of recombinant full length human GST-tagged MST3 expressed in baculovirus expression system at 0.1 uM using serine/threonine-7 peptide as substrate incubated for 60 mins by Z'-LYTE assay relative to control
[16] = molecular target: Misshapen-like kinase 1 (Homo sapiens) (UniProt Q8N4C8); experiment: Inhibition of recombinant human GST-tagged MINK1 catalytic domain (1 to 320 residues) expressed in baculovirus expression system at 0.1 uM using serine/threonine-7 peptide as substrate incubated for 60 mins by Z'-LYTE assay relative to control
[17] = molecular target: Serine/threonine-protein kinase Nek1 (Homo sapiens) (UniProt Q96PY6); experiment: Inhibition of recombinant full length human GST-tagged NEK1 catalytic domain (1 to 505 amino acids) expressed in baculovirus expression system at 0.1 uM using serine/threonine-7 peptide as substrate incubated for 60 mins by Z'-LYTE assay relative to control
Sequence of Serine/threonine-protein kinase Nek1 (Homo sapiens) (Q96PY6 whole entry, the tested form may be a part): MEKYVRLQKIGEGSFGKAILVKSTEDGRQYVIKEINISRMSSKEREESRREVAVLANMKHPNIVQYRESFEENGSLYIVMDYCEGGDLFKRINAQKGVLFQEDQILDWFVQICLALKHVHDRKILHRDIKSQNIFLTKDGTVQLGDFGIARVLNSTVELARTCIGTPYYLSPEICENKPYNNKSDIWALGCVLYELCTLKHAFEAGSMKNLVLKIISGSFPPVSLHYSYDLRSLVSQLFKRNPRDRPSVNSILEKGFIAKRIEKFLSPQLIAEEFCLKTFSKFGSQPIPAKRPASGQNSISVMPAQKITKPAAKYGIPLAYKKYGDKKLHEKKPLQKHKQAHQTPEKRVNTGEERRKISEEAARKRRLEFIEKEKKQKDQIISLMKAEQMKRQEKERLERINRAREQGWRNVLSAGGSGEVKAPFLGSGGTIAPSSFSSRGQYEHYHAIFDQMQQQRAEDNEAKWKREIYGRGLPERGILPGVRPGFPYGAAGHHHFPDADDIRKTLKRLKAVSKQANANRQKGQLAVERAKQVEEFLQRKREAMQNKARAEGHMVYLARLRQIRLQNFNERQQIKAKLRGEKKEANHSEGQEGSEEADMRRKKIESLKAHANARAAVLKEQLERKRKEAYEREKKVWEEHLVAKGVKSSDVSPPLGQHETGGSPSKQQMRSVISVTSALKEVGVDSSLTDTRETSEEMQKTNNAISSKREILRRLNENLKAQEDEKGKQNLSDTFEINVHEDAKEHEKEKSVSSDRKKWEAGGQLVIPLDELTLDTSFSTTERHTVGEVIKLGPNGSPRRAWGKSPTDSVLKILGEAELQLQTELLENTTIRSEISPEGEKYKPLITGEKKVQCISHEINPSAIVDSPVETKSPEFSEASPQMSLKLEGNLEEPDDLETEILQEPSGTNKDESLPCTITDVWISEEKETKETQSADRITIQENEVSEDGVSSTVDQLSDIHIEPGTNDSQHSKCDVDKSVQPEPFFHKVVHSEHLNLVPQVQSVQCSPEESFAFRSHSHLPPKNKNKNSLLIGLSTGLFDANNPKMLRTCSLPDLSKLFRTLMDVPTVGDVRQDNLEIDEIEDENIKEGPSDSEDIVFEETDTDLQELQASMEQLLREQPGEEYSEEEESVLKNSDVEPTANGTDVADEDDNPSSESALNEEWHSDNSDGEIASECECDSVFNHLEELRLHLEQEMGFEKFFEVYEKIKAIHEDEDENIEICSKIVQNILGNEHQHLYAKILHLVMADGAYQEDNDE

[18] = molecular target: Protein kinase C epsilon type (Homo sapiens) (UniProt Q02156); experiment: Inhibition of recombinant full length human GST-tagged PKCepsilon expressed in insect expression system at 0.1 uM using serine/threonine-7 peptide as substrate incubated for 60 mins by Z'-LYTE assay relative to control
[19] = molecular target: Serine/threonine-protein kinase 16 (Homo sapiens) (UniProt O75716); experiment: Inhibition of tracer 236 binding to recombinant full length human His-tagged STK16 expressed in baculovirus expression system at 0.1 uM measured after 60 mins by Lanthascreen assay relative to control
[20] = molecular target: Tyrosine-protein kinase Srms (Homo sapiens) (UniProt Q9H3Y6); experiment: Inhibition of recombinant full length human GST-tagged SRM expressed in baculovirus expression system at 0.1 uM using tyrosine-1 peptide as substrate incubated for 60 mins by Z'-LYTE assay relative to control
[21] = molecular target: Activated CDC42 kinase 1 (Homo sapiens) (UniProt Q07912); experiment: Inhibition of tracer 236 binding to recombinant human GST-tagged TNK2 catalytic domain (110 to 476 residues) expressed in baculovirus expression system at 0.1 uM measured after 60 mins by Lanthascreen assay
[22] = molecular target: Mitogen-activated protein kinase 12 (Homo sapiens) (UniProt P53778); experiment: Inhibition of recombinant full length human His-tagged p38gamma expressed in baculovirus expression system at 0.1 uM using serine/threonine-3 peptide as substrate incubated for 60 mins by Z'-LYTE assay relative to control
Sequence of Mitogen-activated protein kinase 12 (Homo sapiens) (P53778 whole entry): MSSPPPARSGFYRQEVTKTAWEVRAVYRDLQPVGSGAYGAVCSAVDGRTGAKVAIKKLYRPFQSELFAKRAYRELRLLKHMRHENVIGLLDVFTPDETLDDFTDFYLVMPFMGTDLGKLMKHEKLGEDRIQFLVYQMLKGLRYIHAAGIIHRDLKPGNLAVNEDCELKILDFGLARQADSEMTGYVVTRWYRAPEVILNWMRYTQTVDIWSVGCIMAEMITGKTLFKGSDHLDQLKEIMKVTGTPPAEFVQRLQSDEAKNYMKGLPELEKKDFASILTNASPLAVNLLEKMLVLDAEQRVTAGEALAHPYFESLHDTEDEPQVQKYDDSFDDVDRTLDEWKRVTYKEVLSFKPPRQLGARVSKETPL

[23] = molecular target: Myosin light chain kinase (Homo sapiens) (UniProt Q32MK0); experiment: Inhibition of tracer 236 binding to recombinant full length human GST-tagged MYLK3 expressed in baculovirus expression system at 0.1 uM measured after 60 mins by Lanthascreen assay relative to control

SMILES	inhibition [1]	inhibition [2]	inhibition [3]	inhibition [4]	inhibition [5]	inhibition [6]	inhibition [7]	inhibition [8]	inhibition [9]	inhibition [10]	inhibition [11]	inhibition [12]	inhibition [13]	inhibition [14]	inhibition [15]	inhibition [16]	inhibition [17]	inhibition [18]	inhibition [19]	inhibition [20]	other results
CCN1CC2(C1)CN(c1ccc(Nc3ncc(F)c(-c4cnn5c4[C@H](C)CCCC5)n3)nc1)C2	3.5%	30.5%	59.5%	7.5%	0.5%	4%	14%	32.5%	-4%	-2%	16.5%	44%	75%	47%	18.5%	27.5%	0%	14.5%	29.5%	0%	inhibition [21]: 5%; inhibition [22]: 16%; inhibition [23]: 19.5%
CCN1CCN(Cc2ccc(Nc3ncc(F)c(-c4cc(F)c5nc(C)n(C(C)C)c5c4)n3)nc2)CC1 [ABEMACICLIB]	1.5%	29%	92.5%	8%	31.5%	6.5%	31.2%	46%	-0.4%	53.1%	6%	12.5%	18.3%	11.5%	17%	79.5%	14%	22.5%	91.5%	6%	inhibition [21]: 2.4%; inhibition [22]: 5%; inhibition [23]: 30.8%
